pIC50: −log10 of the molar value. Values joined by “and” are separate entries in the source; they are usually repeats but may differ in a detail not shown here. Equal values may be shown once.
How the values were obtained:
Test in all cases: CellTiter-Glo dose-response cell viability assay
Format in all cases: cell-based, human
[1] = tested on: GB187 patient-derived GSC line; settings: Homo sapiens
Procedure: (§1) QST (JNJ-26481585) is a second-generation hydroxamic acid harboring remarkable selectivity toward class I HDACs, with a biochemical IC50 of 0.1 nM for HDAC1 ([13]). […] To determine the cytotoxic effects of QST, we performed a dose-titration cell viability assay in 7 patient-derived GSC lines (BT145, GB187, GB239, GB282, GB71, GB82, and GB126) and 1 long-term serum-grown human GBM cell line (U87). Because GBMs display a high degree of intratumoral heterogeneity, we used GSCs derived from both primary and recurrent GBMs that harbored distinct genetic mutations or aberrations, growth rates, MGMT promoter methylation status, and gene expression profiles (Supplemental Figure 1; supplemental material available online with this article; https://doi.org/10.1172/jci.insight.167081DS1). Cell lines were treated with various concentrations of QST (10–1000 nM), and cell viability was measured 3–5 days later (Figure 1, A and B). […] Treatment with QST at the IC50 induced significant inhibition of proliferation (Ki67) and an increase in programmed cell death (cleaved caspase 3) in 2 different GSC lines (Figure 1, C and D). Additional analyses confirmed that QST induces apoptosis after short-term treatment through increased staining of the apoptotic marker annexin V (Figure 2A) and cell cycle arrest (in G2- or S-phase; Figure 2B and Supplemental Figure 1B).
(§2) GSCs were seeded in laminin-coated tissue culture–treated 96-well plates (clear bottom, white plate; Corning) at a density of 1000–5000 cells per well (cell line dependent) in GSC media. U87-MG were seeded using their normal growth conditions without laminin (10% bovine calf serum in DMEM). All cells were incubated at 37°C and allowed to adhere overnight. The next day, cells were treated with incremental concentrations of QST (Selleckchem; 0, 10, 25, 50, 100, 250, 500, and 1000 nM) diluted in media. Cells treated without QST were treated with DMSO diluted in media. Following treatment with QST, cells were grown for 3 to 5 days (cell line dependent), and cell viability was measured and quantified. All cell viability measurements were performed using the CellTiter-Glo luminescent cell viability assay (Promega) following the manufacturer’s instructions. For the sulforhodamine B colorimetric assay for cytotoxicity, the protocol was performed as described elsewhere ([33]). All cell viability results represent the mean of at least 3 biological replicates, each containing 3 technical replicates.

[2] = tested on: GB282 patient-derived GSC line
Procedure: as §1, §2

[3] = tested on: BT145 patient-derived GSC line
Procedure: as §1, §2

[4] = tested on: GB126 patient-derived GSC line
Procedure: as §1, §2

Cn1cc(CNCC2CCN(c3ncc(C(=O)NO)cn3)CC2)c2ccccc21 [QST, quisinostat]
viability at 0.5 µM ([1]; GB187x, QST 500 nM (log[nM] 2.69897), read-out: Cell viability (fraction of DMSO control)): 47.1% | viability at 1 µM ([1]; GB187x, QST 1000 nM (log[nM] 3), read-out: Cell viability (fraction of DMSO control)): 43.9% | pIC50 ([1]; GB187, 3-5 days): 7.00 | Cell viability (fraction of DMSO control) ([2]; GB282xTdT, QST 10 nM (log[nM] 1)): 0.8875 and 0.8957 | Cell viability (fraction of DMSO control) ([2]; GB282xTdT, QST 25 nM (log[nM] 1.39794)): 0.7531 and 0.7488 | Cell viability (fraction of DMSO control) ([2]; GB282xTdT, QST 50 nM (log[nM] 1.69897)): 0.6063 and 0.5741 | Cell viability (fraction of DMSO control) ([2]; GB282xTdT, QST 100 nM (log[nM] 2)): 0.3901 and 0.3391 | Cell viability (fraction of DMSO control) ([2]; GB282xTdT, QST 250 nM (log[nM] 2.39794)): 0.1846 and 0.1521 | Cell viability (fraction of DMSO control) ([2]; GB282xTdT, QST 500 nM (log[nM] 2.69897)): 0.1138 and 0.08263 | Cell viability (fraction of DMSO control) ([2]; GB282xTdT, QST 1000 nM (log[nM] 3)): 0.07483 and 0.05455 | viability at 0.01 µM ([2]; Homo sapiens, GB282xTdT, QST 10 nM (log[nM] 1), read-out: Cell viability (fraction of DMSO control)): 98.4% | viability at 0.025 µM ([2]; Homo sapiens, GB282xTdT, QST 25 nM (log[nM] 1.39794), read-out: Cell viability (fraction of DMSO control)): 84.2% | viability at 0.05 µM ([2]; Homo sapiens, GB282xTdT, QST 50 nM (log[nM] 1.69897), read-out: Cell viability (fraction of DMSO control)): 68% | viability at 0.1 µM ([2]; Homo sapiens, GB282xTdT, QST 100 nM (log[nM] 2), read-out: Cell viability (fraction of DMSO control)): 43.8% | viability at 0.25 µM ([2]; Homo sapiens, GB282xTdT, QST 250 nM (log[nM] 2.39794), read-out: Cell viability (fraction of DMSO control)): 22% | viability at 0.5 µM ([2]; Homo sapiens, GB282xTdT, QST 500 nM (log[nM] 2.69897), read-out: Cell viability (fraction of DMSO control)): 13.2% | viability at 1 µM ([2]; Homo sapiens, GB282xTdT, QST 1000 nM (log[nM] 3), read-out: Cell viability (fraction of DMSO control)): 8.37% | pIC50 ([2]; Homo sapiens, GB282, 3-5 days): 7.18 | pIC50 ([3]; Homo sapiens, 3-5 days): 7.12 | viability at 0.01 µM ([3]; Homo sapiens, QST 10 nM (log[nM] 1), no IR, read-out: Cell viability (fraction of DMSO control)): 70% | viability at 0.025 µM ([3]; Homo sapiens, QST 25 nM (log[nM] 1.39794), no IR, read-out: Cell viability (fraction of DMSO control)): 64% | viability at 0.05 µM ([3]; Homo sapiens, QST 50 nM (log[nM] 1.69897), no IR, read-out: Cell viability (fraction of DMSO control)): 40% | viability at 0.1 µM ([3]; Homo sapiens, QST 100 nM (log[nM] 2), no IR, read-out: Cell viability (fraction of DMSO control)): 34.2% | viability at 0.25 µM ([3]; Homo sapiens, QST 250 nM (log[nM] 2.39794), no IR, read-out: Cell viability (fraction of DMSO control)): 25.7% | viability at 0.5 µM ([3]; Homo sapiens, QST 500 nM (log[nM] 2.69897), no IR, read-out: Cell viability (fraction of DMSO control)): 18.6% | viability at 1 µM ([3]; Homo sapiens, QST 1000 nM (log[nM] 3), no IR, read-out: Cell viability (fraction of DMSO control)): 13% | Cell viability (fraction of DMSO control) ([3]; QST 10 nM (log[nM] 1), no IR): 0.7896 and 0.7644 | Cell viability (fraction of DMSO control) ([3]; QST 25 nM (log[nM] 1.39794), no IR): 0.7548 and 0.7039 | Cell viability (fraction of DMSO control) ([3]; QST 50 nM (log[nM] 1.69897), no IR): 0.4986 and 0.5266 | Cell viability (fraction of DMSO control) ([3]; QST 100 nM (log[nM] 2), no IR): 0.3524 and 0.2775 | Cell viability (fraction of DMSO control) ([3]; QST 250 nM (log[nM] 2.39794), no IR): 0.3528 and 0.3396 | Cell viability (fraction of DMSO control) ([3]; QST 500 nM (log[nM] 2.69897), no IR): 0.2416 and 0.229 | Cell viability (fraction of DMSO control) ([3]; QST 1000 nM (log[nM] 3), no IR): 0.1715 | Cell viability (fraction of DMSO control) ([4]; GB126 (GB126xTdT), QST 10 nM (log[nM] 1), no IR): 0.8102 and 0.8005 | Cell viability (fraction of DMSO control) ([4]; GB126 (GB126xTdT), QST 25 nM (log[nM] 1.39794), no IR): 0.6353 and 0.6191 | Cell viability (fraction of DMSO control) ([4]; GB126 (GB126xTdT), QST 50 nM (log[nM] 1.69897), no IR): 0.4839 and 0.5154 | Cell viability (fraction of DMSO control) ([4]; GB126 (GB126xTdT), QST 100 nM (log[nM] 2), no IR): 0.3119 and 0.4774 | viability at 0.01 µM ([4]; Homo sapiens, GB126 (GB126xTdT), QST 10 nM (log[nM] 1), no IR, read-out: Cell viability (fraction of DMSO control)): 79.2% | viability at 0.025 µM ([4]; Homo sapiens, GB126 (GB126xTdT), QST 25 nM (log[nM] 1.39794), no IR, read-out: Cell viability (fraction of DMSO control)): 66.8% | viability at 0.05 µM ([4]; Homo sapiens, GB126 (GB126xTdT), QST 50 nM (log[nM] 1.69897), no IR, read-out: Cell viability (fraction of DMSO control)): 57.6% | viability at 0.1 µM ([4]; Homo sapiens, GB126 (GB126xTdT), QST 100 nM (log[nM] 2), no IR, read-out: Cell viability (fraction of DMSO control)): 44.3% | pIC50 ([4]; Homo sapiens, GB126, 3-5 days): 7.07

From article PMC10721329, “Quisinostat is a brain-penetrant radiosensitizer in glioblastoma” (JCI Insight, 2023)
